Laboratory results from ChEMBL document CHEMBL1132091, “Synthesis and biological activity of substituted bis-(4-hydroxyphenyl)methanes as N-type calcium channel blockers” (Bioorg Med Chem Lett, 1999).

How the values were obtained:
[1] = biological target: T1, Voltage-dependent N-type calcium channel subunit alpha-1B (Homo sapiens, UniProt Q00975); experiment: Inhibition of N-type calcium channels in IMR-32 human neuroblastoma cells at 10 uM; type: functional, cell-based
Target sequence in this assay (Q00975 whole entry, looked up): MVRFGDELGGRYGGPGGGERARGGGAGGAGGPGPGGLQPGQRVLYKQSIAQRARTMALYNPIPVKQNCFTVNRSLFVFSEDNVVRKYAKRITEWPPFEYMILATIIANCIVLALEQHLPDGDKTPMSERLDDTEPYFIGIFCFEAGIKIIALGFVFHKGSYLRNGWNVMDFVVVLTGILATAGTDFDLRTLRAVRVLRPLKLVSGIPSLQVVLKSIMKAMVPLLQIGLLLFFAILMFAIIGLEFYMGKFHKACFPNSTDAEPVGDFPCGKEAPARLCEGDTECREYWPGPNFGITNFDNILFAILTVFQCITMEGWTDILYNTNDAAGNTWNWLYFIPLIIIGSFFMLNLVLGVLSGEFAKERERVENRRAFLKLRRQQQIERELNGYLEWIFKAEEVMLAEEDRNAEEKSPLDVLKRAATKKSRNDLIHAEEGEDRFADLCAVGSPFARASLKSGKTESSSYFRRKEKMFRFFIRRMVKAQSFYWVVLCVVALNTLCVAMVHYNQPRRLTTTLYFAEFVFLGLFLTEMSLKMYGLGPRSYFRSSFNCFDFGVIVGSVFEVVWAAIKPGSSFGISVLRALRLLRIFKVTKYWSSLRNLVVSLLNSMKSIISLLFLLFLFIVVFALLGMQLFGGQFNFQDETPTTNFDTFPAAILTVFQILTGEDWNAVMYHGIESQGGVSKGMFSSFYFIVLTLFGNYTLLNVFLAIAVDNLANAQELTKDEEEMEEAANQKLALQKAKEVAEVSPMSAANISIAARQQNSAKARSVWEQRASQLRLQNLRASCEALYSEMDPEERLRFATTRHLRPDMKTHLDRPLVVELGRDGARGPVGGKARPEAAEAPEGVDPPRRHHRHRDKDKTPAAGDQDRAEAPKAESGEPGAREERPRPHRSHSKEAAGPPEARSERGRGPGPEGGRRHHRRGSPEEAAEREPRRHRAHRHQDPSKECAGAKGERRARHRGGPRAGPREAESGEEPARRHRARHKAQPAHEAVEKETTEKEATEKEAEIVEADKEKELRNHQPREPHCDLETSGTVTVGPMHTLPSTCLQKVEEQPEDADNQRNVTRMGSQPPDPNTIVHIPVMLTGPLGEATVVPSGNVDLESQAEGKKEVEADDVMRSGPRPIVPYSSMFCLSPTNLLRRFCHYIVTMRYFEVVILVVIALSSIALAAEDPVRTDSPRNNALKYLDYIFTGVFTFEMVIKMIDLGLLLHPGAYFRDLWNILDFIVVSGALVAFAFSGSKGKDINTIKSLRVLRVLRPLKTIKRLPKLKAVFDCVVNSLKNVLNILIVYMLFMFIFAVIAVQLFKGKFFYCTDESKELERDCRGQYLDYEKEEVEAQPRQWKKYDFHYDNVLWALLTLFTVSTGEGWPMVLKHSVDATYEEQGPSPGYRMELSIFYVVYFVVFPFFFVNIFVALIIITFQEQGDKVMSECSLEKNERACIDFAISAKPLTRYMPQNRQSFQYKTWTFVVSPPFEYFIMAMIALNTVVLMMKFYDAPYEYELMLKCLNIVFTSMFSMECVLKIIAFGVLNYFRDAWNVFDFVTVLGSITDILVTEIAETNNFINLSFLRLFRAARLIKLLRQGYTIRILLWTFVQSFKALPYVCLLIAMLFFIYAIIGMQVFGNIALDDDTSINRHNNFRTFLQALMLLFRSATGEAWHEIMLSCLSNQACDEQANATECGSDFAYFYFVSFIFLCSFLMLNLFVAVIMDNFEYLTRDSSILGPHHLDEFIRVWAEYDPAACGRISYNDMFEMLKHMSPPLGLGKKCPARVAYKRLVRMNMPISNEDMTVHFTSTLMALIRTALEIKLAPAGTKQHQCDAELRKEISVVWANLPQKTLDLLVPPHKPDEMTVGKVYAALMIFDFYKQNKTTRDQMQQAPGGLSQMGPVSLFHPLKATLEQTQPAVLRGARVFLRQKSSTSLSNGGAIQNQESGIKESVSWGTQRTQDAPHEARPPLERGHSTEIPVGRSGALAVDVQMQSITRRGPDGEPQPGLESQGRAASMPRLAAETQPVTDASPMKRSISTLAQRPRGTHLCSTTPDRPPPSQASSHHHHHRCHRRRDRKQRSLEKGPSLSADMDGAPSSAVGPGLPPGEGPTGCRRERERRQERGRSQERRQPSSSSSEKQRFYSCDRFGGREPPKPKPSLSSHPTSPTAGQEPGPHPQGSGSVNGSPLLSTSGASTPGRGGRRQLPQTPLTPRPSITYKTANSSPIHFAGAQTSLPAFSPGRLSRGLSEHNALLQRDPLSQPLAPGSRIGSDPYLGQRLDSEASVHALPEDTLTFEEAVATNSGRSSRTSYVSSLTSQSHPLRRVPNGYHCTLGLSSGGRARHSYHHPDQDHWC

[2] = biological target: T1, Voltage-dependent N-type calcium channel subunit alpha-1B; experiment: Inhibition of N-type calcium channel in IMR-32 human neuroblastoma cell; type: functional
Target sequence in this assay (Q00975 whole entry): as the sequence (Q00975 whole entry, looked up) above

[3] = Blockade of K+ channels in SCG neurons at 10 uM; type: functional; conditions: Rattus norvegicus
[4] = biological target: Voltage-gated L-type calcium channel (Rattus norvegicus, UniProt P22002+Q02485+P27732); experiment: Inhibition of L-type calcium channels in GH-3 rat pituitary cells; type: functional, cell-based; conditions: pituitary gland cell
[5] = Blockade of Na+ channels in SCG neurons at 10 uM; type: functional; conditions: Rattus norvegicus
[6] = biological target: T1, Voltage-dependent N-type calcium channel subunit alpha-1B; experiment: Inhibition of N-type calcium channels in IMR-32 human neuroblastoma cells; type: functional, cell-based
Target sequence in this assay (Q00975 whole entry): as the sequence (Q00975 whole entry, looked up) above

inhibition [1] [%]	IC50 [2] [nM]	IC50 [4] [nM]	IC50 [6] [nM]	SMILES	inhibition at 10 µM [3] [%]	inhibition at 10 µM [5] [%]
-6				CC(CCC(=O)N(Cc1ccccc1)Cc1ccccc1)(c1ccc(O)cc1)c1ccc(O)cc1		
	970	2000		CC(C)(c1ccc(O)c(CN2CCCCCC2)c1)c1ccc(O)c(CN2CCCCCC2)c1	77	81
			35000	Oc1c(/C=N\C2CCCCC2)ccc2cnccc12		
	1800			CC(CCC(O)(c1ccccc1)c1ccccc1)(c1ccc(O)cc1)c1ccc(O)c(CN2CCCCCC2)c1 (configuration not stated)		
		900		CC(CCC(O)(c1ccccc1)c1ccccc1)(c1ccc(O)c(CN2CCCCCC2)c1)c1ccc(O)c(CN2CCCCCC2)c1	61	78
		9100		CC(CCC(c1ccccc1)c1ccccc1)(c1ccc(O)c(CN2CCCCCC2)c1)c1ccc(O)c(CN2CCCCCC2)c1	18	5
	1800			O=C(NCC(c1ccc(O)c(CN2CCCCCC2)c1)c1ccc(O)c(CN2CCCCCC2)c1)C(c1ccccc1)c1ccccc1		
		4100		CC(CCCN(Cc1ccccc1)Cc1ccccc1)(c1ccc(O)c(CN2CCCCCC2)c1)c1ccc(O)c(CN2CCCCCC2)c1	28	24
